Laboratory results reported in PMC11649397, “The study of halogen effect on the reactivity of the serine-targeting covalent warheads” (Frontiers in Chemistry, 2024).

Target: T1, human pancreatic lipase (hPL) (Homo sapiens, UniProt P16233)
T1 sequence (P16233 17-465): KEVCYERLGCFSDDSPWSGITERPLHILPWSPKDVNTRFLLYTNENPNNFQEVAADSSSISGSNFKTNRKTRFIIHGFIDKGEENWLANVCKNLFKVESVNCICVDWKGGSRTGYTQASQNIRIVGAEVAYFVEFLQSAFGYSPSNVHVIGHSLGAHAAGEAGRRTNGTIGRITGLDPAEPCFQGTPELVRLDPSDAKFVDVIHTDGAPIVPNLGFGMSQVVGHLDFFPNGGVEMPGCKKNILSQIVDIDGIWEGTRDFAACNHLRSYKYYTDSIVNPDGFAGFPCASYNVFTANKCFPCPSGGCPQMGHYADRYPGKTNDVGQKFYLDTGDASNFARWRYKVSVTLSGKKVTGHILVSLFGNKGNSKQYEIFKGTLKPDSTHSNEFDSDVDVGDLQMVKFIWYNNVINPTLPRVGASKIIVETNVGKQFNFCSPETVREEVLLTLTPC
Experiment: Inhibition assay on human pancreatic lipase (substrate DDAO-ol)
Type: biochemical
Details: 10 μM, selectivity screening
Source text: 1. Detailed experimental, materials, and methods
The household library of covalent fragments including D and F was from Organic Chemistry […]
Fig. S1. Partial fragment molecules of a household library targeting to serine.
Commercially available materials were ordered from commercial suppliers (Bidepharm, Shanghai, China) and used without further purification. Structures were checked by 1H- and 13C-NMR spectra on a Bruker AVANCE 600/125 MHz instrument for confirmation, using DMSO- d6 or CDCl 3 as the solvent. Molecular orbitals were calculated using Gaussian 09W and image generated by GaussView 6.0.1
Inhibition assay on hCES1A
In this study, a known bioluminogenic probe substrate NLMe was used for human carboxylesterase 1 (hCES1A) inhibition assays. […]
The luminescence signals were monitored in the microplate reader (SpectraMax iD3Molecular […]
Human carboxylesterase 2 (hCES2A) inhibition assays were conducted using FD, a known fluorescent substrate. […] The fluorescent signals (excitation/emission, 480 nm/525 nm) were continuously recorded by a microplate reader (SpectraMax iD3Molecular Devices, Austria). […]
fluorogenic probe. […] The fluorescent signals of hydrolytic product were quantified by using the microplate reader (Spectra Max M4, Austria), with the wavelength of 600 nm and 660 nm for excitation and emission, respectively. […]

| SMILES | response to hPL |
| --- | --- |
| O=S(=O)(F)c1ccc(Br)cc1 [D, 4-bromobenzenesulfonyl fluoride] | no potent responses |
| O=C(c1ccccc1)C(F)(F)F [F, 2,2,2-trifluoroacetophenone] | no potent responses |
